Values of other authors, collected in US20100273711A1, “INDIVIDUALIZED CANCER TREATMENTS” (priority 2007, published 2010).

Experiments:
CX-2 = settings: cell line CX-2, colon ca; cited from earlier work
ME43 = settings: cell line ME43, melanoma; cited from earlier work
SW13 = settings: cell line SW13, adrenal cortex carcinoma; cited from earlier work
BT20 = settings: cell line BT20, breast ca; cited from earlier work
Hep3B = settings: cell line Hep3B, HCC; cited from earlier work
OVCAR3 = settings: cell line OVCAR3, ovarian ca; cited from earlier work
MeWo = settings: cell line MeWo, melanoma; cited from earlier work
ES-2 = settings: cell line ES-2, ovarian ca; cited from earlier work
FU-OV-1 = settings: cell line FU-OV-1, ovarian ca; cited from earlier work
A375 = settings: cell line A375, melanoma; cited from earlier work
SNU449 = settings: cell line SNU449, HCC; cited from earlier work
SKOV-3 = settings: cell line SKOV-3, ovarian ca; cited from earlier work
HT-29 = settings: cell line HT-29, colon ca; cited from earlier work
181/85p = settings: cell line 181/85p, pancreas ca; cited from earlier work
SNU423 = settings: cell line SNU423, HCC; cited from earlier work
DV-90 = settings: cell line DV-90, lung ca; cited from earlier work
SNU475 = settings: cell line SNU475, HCC; cited from earlier work
R103 = settings: cell line R103, breast ca; cited from earlier work
SNU182 = settings: cell line SNU182, HCC; cited from earlier work
SKBR3 = settings: cell line SKBR3, breast ca; cited from earlier work
C8161 = settings: cell line C8161, melanoma; cited from earlier work
R193 = settings: cell line R193, breast ca; cited from earlier work
257p = settings: cell line 257p, gastric ca; cited from earlier work
HRT-18 = settings: cell line HRT-18, colon ca; cited from earlier work
Du145 = settings: cell line Du145, prostate ca; cited from earlier work
OAW42 = settings: cell line OAW42, ovarian ca; cited from earlier work
SKMel19 = settings: cell line SKMel19, melanoma; cited from earlier work

Measured: Cisplatin Resistant (Res) or Sensitive (Sen)

N.N.[Cl][Pt][Cl] [Cisplatin, cisplatin]
Sen: BT20 | OVCAR3 | FU-OV-1 | DV-90 | R103 | R193 | OAW42
Res: all other assays above
